Source: article PMC12684391, “Mechanistic insights into the monotherapy and combination potential of FEN1 inhibition in cancer therapy” (Nucleic Acids Research, 2025)

Tests used:
[1] = test system: MMEJ (resection dependent reporter); experiment: Extrachromosomal MMEJ reporter assay, resection dependent, HEK-293; format: cell-based; settings: Homo sapiens, HEK293, HEK-293, 24 h, read-out: MMEJ inhibition EC50
Protocol: MMEJ resection-independent and MMEJ resection-dependent reporter assays performed as previously described. In brief, HEK-293 cells were resuspended in supplemented SF nucleofection solution (Lonza) containing nanoluciferase DNA substrate and Firefly luciferase plasmid (Promega) at a ratio of 100 μl SF: 1500 ng nanoluciferase substrate: 1000 ng Firefly plasmid: ∼1.5 × 10^6 cells. Cells were electroporated and recovered into fresh media before seeding into a 96-well plate pre-dosed with compounds and DMSO control.
After 24 h, Firefly and NanoLuc levels were detected using the Nano-Glo® Dual-Luciferase® Reporter Assay system (Promega) as per the manufacturer’s instructions. NanoLuc luminescence (reporter) was normalized to Firefly luminescence (control) to determine substrate repair. Percentage repair was calculated relative to the DMSO control.

[2] = test system: SUM149PT 53BP1KO and SHLD2KO cells; experiment: Cell viability assay (CTG), 7 days, PARP inhibitor resistant models; format: cell-based; settings: less sensitive than parental
Protocol: Cells were seeded in 150 μl of media in 96-well plates or in 70 μl of media in 384-well plates pre-dosed with compounds (8–10 points dose response) with a D300e digital dispenser (Tecan) and incubated for 24 h at 37°C and 5% CO2. Cell proliferation at the end of the assay (7 days) was measured using CTG (Promega, G9243). CTG luminescence was normalized to vehicle treated control for each cell line, and data were fitted with a nonlinear regression curve (four parameters) to generate compound sensitivity curves and determine IC50 or EC50 (half maximal inhibitory/effective concentration) values as indicated.

FEN1 = target: T1, FEN1 (Homo sapiens, UniProt P39748); experiment: Fluorescence-based 5′-flap cleavage assay of FEN1 nuclease activity; format: biochemical
T1 construct: Full-length FEN1 (1-380) was expressed in Escherichia coli; 6His; made in house; host or cells: Escherichia coli
Protocol: MSC778 was dissolved in dimethyl sulphoxide (DMSO) to give a 10 mM stock. FEN1/EXO1: compound was dispensed into black 384-shallow well microplates (Greiner #784076). The compound was dispensed as an 11-point dose response with a 3-fold serial dilution from a top concentration of 10 mM (to give a final in-assay concentration of 100 µM). GEN1/XPG: MSC778 was dispensed into black 1536-well plates (Greiner #782076). The compound was dispensed as a 20-point dose response with a 3-fold serial dilution from a top concentration of 10 mM (to give a final in-assay concentration of 100 µM). The volume of DMSO was adjusted to ensure that each well contained 1% (v/v) DMSO in the final assay. […]
5 µl (FEN1/EXO1) or 3 µl per well (GEN1/XPG) of stop buffer (20 mM Tris pH 7.5, 300 mM EDTA) was added to all wells, then the plates were read on the CLARIOstar Plus (BMG LABTECH Ltd.) using the Fluorescein (FITC) wavelengths (Ex 483 ± 14, Em 530 ± 30, Dichroic auto/502.5) and auto focal height/gain settings.
All data analysis was carried out using Genedata Screener software. IC50 values were calculated using the SmartFit function.
A fluorescence-based 5′-flap cleavage assay, in which quenching of the fluorescence of a fluorescein amidite (FAM) moiety is alleviated by nucleolytic cleavage, was used to measure the nuclease activity of FEN1 (Fig. 1B and Supplementary Fig. S1A). […]

U-2 OS cells = experiment: Flow cytometric analysis of apoptosis (annexin V/PI); format: cell-based; settings: 0.1 μM, 72 h
Protocol: (§1) Apoptosis was measured using annexin V and propidium iodide (PI) staining using an Annexin V-fluorescein isothiocyanate (FITC) apoptosis detection kit (Thermo Fisher Scientific, V13242) according to manufacturer’s instructions.
(§2) Briefly, cells were cultured in six-well plates and treated with FEN1 inhibitor at indicated concentrations for 72 h. The supernatant and adherent cells were collected and washed twice with ice-cold PBS, then re-suspended in 100 µl of 1× binding buffer. Annexin V-FITC conjugate (5 µl) and PI (1 µl) were added, and the cells were incubated at room temperature for 15 min in the dark. After addition of 300 µl of 1× binding buffer, the cells were analyzed using a flow cytometer (CytoFLEX, Beckman).

[3] = test system: EWS cells (MHH-ES-1, RD-ES); experiment: as above; format: cell-based; settings: 0.1 μM, 72 h
Protocol: as §1, §2

[4] = test system: DLD-1, DLD-1 BRCA2KO, SUM149PT, MDA-MB-436 cells; experiment: as above; format: cell-based; settings: 1 μM, 72 h
Protocol: as §1, §2

T1 sequence (P39748 whole entry): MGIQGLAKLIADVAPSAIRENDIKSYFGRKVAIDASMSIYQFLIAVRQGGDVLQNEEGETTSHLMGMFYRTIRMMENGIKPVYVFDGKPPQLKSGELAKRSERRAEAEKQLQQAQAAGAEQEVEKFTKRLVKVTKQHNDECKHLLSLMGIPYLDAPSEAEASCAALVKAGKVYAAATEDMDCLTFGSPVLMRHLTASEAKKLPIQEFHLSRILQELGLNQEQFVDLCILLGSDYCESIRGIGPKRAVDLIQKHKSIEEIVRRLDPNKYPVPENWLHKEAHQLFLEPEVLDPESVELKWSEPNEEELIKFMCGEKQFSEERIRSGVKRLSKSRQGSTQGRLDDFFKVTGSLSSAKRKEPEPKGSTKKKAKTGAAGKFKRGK

C[C@H](Oc1nn2c(c(O)c1=O)C(=O)N1CCOC[C@@H]1C2)c1ccc2ccc(Cl)cc2c1 [MSC778]
EC50 [1]: 0.84 µM
Change in sensitivity of SUM149PT 53BP1KO and SHLD2KO cells versus parental cells [2]: 2 fold
Potency on FEN1 nuclease activity relative to MSC781 (FEN1; more potent than MSC781): 16 fold
IC50 (FEN1; n = 3, SD = 0.14, cognate 5′ flap substrate): 0.0032 µM
Induction of apoptotic cell death (U-2 OS cells): not
Induction of cell death [3]: induced apoptotic cell death
Induction of cell death [4]: induced cell death by apoptosis
